The supplement of paper PMC10307832

Columns and labels:
Experiment in all cases: relative viability (nuclei count vs DMSO), 5 days (fraction); higher = more cells survive
[1] = compound: Cc1cc(Nc2cc(N3CCN(C)CC3)nc(Sc3ccc(NC(=O)C4CC4)cc3)n2)n[nH]1 [Tozasertib]
Method in brief: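 Following overnight incubation at 37 °C, lung cancer cell lines in 1536-well plates were pinned with five library-drug doses (not always all listed) in √10 steps on vehicle-anchored plates. The cells then spent 5 days without medium change before a combined fix, permeabilisation and Hoechst stain, 4× imaging and MetaXpress nuclear counts. Viability is the treated-to-vehicle ratio of nuclei, taken as the median across plates. Only plates with control CV below 25% and at least one doubling passed.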

[2] = compound: Cc1cc(Nc2cc(N3CCN(C)CC3)nc(Sc3ccc(NC(=O)C4CC4)cc3)n2)n[nH]1 [Tozasertib] + CS(=O)(=O)CCNCc1ccc(-c2ccc3ncnc(Nc4ccc(OCc5cccc(F)c5)c(Cl)c4)c3c2)o1 [Lapatinib] (partner 2 µM)
Method in brief: (§1)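 Relative viability is defined as nuclei in treated wells over nuclei in vehicle wells. Duplicate plates were run and medians reported. Lung cancer cell lines in 1536-well plates were dosed by pin tool one day after seeding, with one drug or with a fixed anchor-drug dose plus five library-drug doses (not always all listed) in √10 steps, and nuclei were counted after 5 days.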

[3] = compound: Cc1cc(Nc2cc(N3CCN(C)CC3)nc(Sc3ccc(NC(=O)C4CC4)cc3)n2)n[nH]1 [Tozasertib] + O=C(c1cc(Cc2n[nH]c(=O)c3ccccc23)ccc1F)N1CCN(C(=O)C2CC2)CC1 [Olaparib] (partner 8 µM)
Method in brief: as §1

[4] = compound: Cc1cc(Nc2cc(N3CCN(C)CC3)nc(Sc3ccc(NC(=O)C4CC4)cc3)n2)n[nH]1 [Tozasertib] + CC(C)C[C@H](NC(=O)[C@H](Cc1ccccc1)NC(=O)c1cnccn1)B(O)O [Bortezomib] (partner 0.002 µM)
Method in brief: as §1

[5] = compound: Cc1cc(Nc2cc(N3CCN(C)CC3)nc(Sc3ccc(NC(=O)C4CC4)cc3)n2)n[nH]1 [Tozasertib] + C[C@@H](Oc1cc(-c2cnn(C3CCNCC3)c2)cnc1N)c1c(Cl)ccc(F)c1Cl [Crizotinib] (partner 1 µM)
Method in brief: as §1

[6] = compound: Cc1cc(Nc2cc(N3CCN(C)CC3)nc(Sc3ccc(NC(=O)C4CC4)cc3)n2)n[nH]1 [Tozasertib] + CC1(C)CCC(c2ccc(Cl)cc2)=C(CN2CCN(c3ccc(C(=O)NS(=O)(=O)c4ccc(N[C@H](CCN5CCOCC5)CSc5ccccc5)c(S(=O)(=O)C(F)(F)F)c4)cc3)CC2)C1 [Navitoclax] (partner 0.5 µM)
Method in brief: as §1

[7] = compound: Cc1cc(Nc2cc(N3CCN(C)CC3)nc(Sc3ccc(NC(=O)C4CC4)cc3)n2)n[nH]1 [Tozasertib] + C[C@]1(O)C[C@@H](c2nc(-c3ccc4ccc(-c5ccccc5)nc4c3)c3c(N)nccn32)C1 [Linsitinib] (partner 1 µM)
Method in brief: as §1

[8] = compound: Cc1cc(Nc2cc(N3CCN(C)CC3)nc(Sc3ccc(NC(=O)C4CC4)cc3)n2)n[nH]1 [Tozasertib] + COc1cc2c(Oc3ccc(NC(=O)C4(C(=O)Nc5ccc(F)cc5)CC4)cc3F)ccnc2cc1OCCCN1CCOCC1 [Foretinib] (partner 0.25 µM)
Method in brief: as §1

[9] = compound: Cc1cc(Nc2cc(N3CCN(C)CC3)nc(Sc3ccc(NC(=O)C4CC4)cc3)n2)n[nH]1 [Tozasertib] + Cc1nc(NC(=O)N2CCC[C@H]2C(N)=O)sc1-c1ccnc(C(C)(C)C(F)(F)F)c1 [Alpelisib] (partner 2 µM)
Method in brief: as §1

[10] = compound: Cc1cc(Nc2cc(N3CCN(C)CC3)nc(Sc3ccc(NC(=O)C4CC4)cc3)n2)n[nH]1 [Tozasertib] + CS(=O)(=O)N1CCN(Cc2cc3nc(-c4cccc5[nH]ncc45)nc(N4CCOCC4)c3s2)CC1 [Pictilisib] (partner 1 µM)
Method in brief: as §1

[11] = compound: Cc1cc(Nc2cc(N3CCN(C)CC3)nc(Sc3ccc(NC(=O)C4CC4)cc3)n2)n[nH]1 [Tozasertib] + N=C(N)NC(=N)NCCc1ccccc1 [Phenformin] (partner 250 µM)
Method in brief: as §1

[12] = compound: Cc1cc(Nc2cc(N3CCN(C)CC3)nc(Sc3ccc(NC(=O)C4CC4)cc3)n2)n[nH]1 [Tozasertib] + CCNC(=O)c1noc(-c2cc(C(C)C)c(O)cc2O)c1-c1ccc(CN2CCOCC2)cc1 [Luminespib] (partner 0.01 µM)
Method in brief: as §1

[13] = compound: Cc1cc(Nc2cc(N3CCN(C)CC3)nc(Sc3ccc(NC(=O)C4CC4)cc3)n2)n[nH]1 [Tozasertib] + Cc1nc(Nc2ncc(C(=O)Nc3c(C)cccc3Cl)s2)cc(N2CCN(CCO)CC2)n1 [Dasatinib] (partner 0.075 µM)
Method in brief: as §1

[14] = compound: Cc1cc(Nc2cc(N3CCN(C)CC3)nc(Sc3ccc(NC(=O)C4CC4)cc3)n2)n[nH]1 [Tozasertib] + COc1cccc2cc(-c3nc([C@H]4CC[C@H](C(=O)O)CC4)n4ncnc(N)c34)[nH]c12 [OSI-027] (partner 0.5 µM)
Method in brief: as §1

[15] = compound: Cc1cc(Nc2cc(N3CCN(C)CC3)nc(Sc3ccc(NC(=O)C4CC4)cc3)n2)n[nH]1 [Tozasertib] + Nc1nc2[nH]cc(CCc3ccc(C(=O)N[C@@H](CCC(=O)O)C(=O)O)cc3)c2c(=O)[nH]1 [Pemetrexed] (partner 0.2 µM)
Method in brief: as §1

NCI-H1299
relative viability ([1]; 0.004 µM): 1.04 | relative viability ([1]; 0.01265 µM): 1.02 | relative viability ([1]; 0.04 µM): 1.01 | relative viability ([1]; 0.1265 µM): 1.02 | relative viability ([2]; first compound 0.004 µM): 1.03 | relative viability ([2]; first compound 0.01265 µM): 0.947 | relative viability ([2]; first compound 0.1265 µM): 0.703 | relative viability ([3]; first compound 0.004 µM): 0.982 | relative viability ([3]; first compound 0.01265 µM): 0.939 | relative viability ([3]; first compound 0.04 µM): 0.943 | relative viability ([3]; first compound 0.1265 µM): 0.961 | relative viability ([4]; first compound 0.004 µM): 1.07 | relative viability ([4]; first compound 0.01265 µM): 1.01 | relative viability ([4]; first compound 0.04 µM): 1.02 | relative viability ([4]; first compound 0.1265 µM): 1.03 | relative viability ([5]; first compound 0.004 µM): 0.998 | relative viability ([5]; first compound 0.01265 µM): 0.996 | relative viability ([5]; first compound 0.04 µM): 0.952 | relative viability ([5]; first compound 0.1265 µM): 0.761 | relative viability ([6]; first compound 0.004 µM): 1.1 | relative viability ([6]; first compound 0.01265 µM): 1.04 | relative viability ([6]; first compound 0.04 µM): 1.06 | relative viability ([6]; first compound 0.1265 µM): 1.07 | relative viability ([7]; first compound 0.004 µM): 0.952 | relative viability ([7]; first compound 0.01265 µM): 0.979 | relative viability ([7]; first compound 0.04 µM): 0.988 | relative viability ([7]; first compound 0.1265 µM): 0.597 | relative viability ([8]; first compound 0.004 µM): 1.17 | relative viability ([8]; first compound 0.01265 µM): 1.07 | relative viability ([8]; first compound 0.04 µM): 1.08 | relative viability ([8]; first compound 0.1265 µM): 0.499 | relative viability ([9]; first compound 0.004 µM): 1.08 | relative viability ([9]; first compound 0.01265 µM): 1.13 | relative viability ([9]; first compound 0.04 µM): 1.04 | relative viability ([9]; first compound 0.1265 µM): 1.05 | relative viability ([10]; first compound 0.004 µM): 0.951 | relative viability ([10]; first compound 0.01265 µM): 0.808 | relative viability ([10]; first compound 0.04 µM): 0.75 | relative viability ([10]; first compound 0.1265 µM): 0.615

NCI-H1563
relative viability ([1]; 0.004 µM): 1.04 | relative viability ([1]; 0.01265 µM): 1.07 | relative viability ([1]; 0.04 µM): 1.02 | relative viability ([1]; 0.1265 µM): 0.884 | relative viability ([11]; first compound 0.004 µM): 0.704 | relative viability ([11]; first compound 0.01265 µM): 0.668 | relative viability ([11]; first compound 0.04 µM): 0.721 | relative viability ([11]; first compound 0.1265 µM): 0.573 | relative viability ([2]; first compound 0.004 µM): 0.922 | relative viability ([2]; first compound 0.01265 µM): 0.967 | relative viability ([2]; first compound 0.04 µM): 0.875 | relative viability ([4]; first compound 0.004 µM): 0.873 | relative viability ([4]; first compound 0.01265 µM): 0.817 | relative viability ([4]; first compound 0.04 µM): 0.956 | relative viability ([4]; first compound 0.1265 µM): 0.861 | relative viability ([12]; first compound 0.004 µM): 0.48 | relative viability ([12]; first compound 0.01265 µM): 0.635 | relative viability ([12]; first compound 0.04 µM): 0.484 | relative viability ([12]; first compound 0.1265 µM): 0.48 | relative viability ([13]; first compound 0.004 µM): 0.567 | relative viability ([13]; first compound 0.01265 µM): 0.481 | relative viability ([13]; first compound 0.04 µM): 0.541 | relative viability ([13]; first compound 0.1265 µM): 0.453 | relative viability ([5]; first compound 0.004 µM): 0.843 | relative viability ([5]; first compound 0.01265 µM): 0.843 | relative viability ([5]; first compound 0.04 µM): 0.934 | relative viability ([5]; first compound 0.1265 µM): 0.84 | relative viability ([7]; first compound 0.004 µM): 1.26 | relative viability ([7]; first compound 0.01265 µM): 1.2 | relative viability ([7]; first compound 0.04 µM): 1.14 | relative viability ([7]; first compound 0.1265 µM): 1.12 | relative viability ([14]; first compound 0.01265 µM): 0.763 | relative viability ([14]; first compound 0.04 µM): 0.713 | relative viability ([14]; first compound 0.1265 µM): 0.701 | relative viability ([8]; first compound 0.004 µM): 0.892 | relative viability ([8]; first compound 0.01265 µM): 0.919 | relative viability ([8]; first compound 0.04 µM): 0.918 | relative viability ([8]; first compound 0.1265 µM): 0.92 | relative viability ([15]; first compound 0.004 µM): 0.816 | relative viability ([15]; first compound 0.01265 µM): 0.845 | relative viability ([15]; first compound 0.04 µM): 0.823 | relative viability ([15]; first compound 0.1265 µM): 0.615 | relative viability ([9]; first compound 0.004 µM): 0.944 | relative viability ([9]; first compound 0.01265 µM): 0.794 | relative viability ([9]; first compound 0.04 µM): 0.94 | relative viability ([9]; first compound 0.1265 µM): 0.874 | relative viability ([10]; first compound 0.004 µM): 0.61 | relative viability ([10]; first compound 0.01265 µM): 0.641 | relative viability ([10]; first compound 0.04 µM): 0.684 | relative viability ([10]; first compound 0.1265 µM): 0.53
